Legend:
human IL-17A = human IL-17A (Homo sapiens (Human), UniProt Q16552)
Procedure: The ability of compounds to neutralize the activity of IL-17A may be assessed with a cell-based human IL-17A neutralization assay conducted essentially as follows. […] After 48 hours, CXCL1/GROα in the culture media is measured using a commercial ELISA kit (#DY275; R&D Systems). Medium alone treatments are included in every experiment to assess the basal levels of CXCL1/GROα. Percent inhibition is calculated using the following equation:

[1] = biological target: binding of IL-17A to IL-17RA (Homo sapiens (Human), UniProt Q16552); assay: IL-17A:IL-17RA AlphaLISA
Procedure: The ability of compounds to inhibit the binding of IL-17A to IL-17RA may be assessed with an AlphaLISA assay.
To assay the compounds of the present invention, 0.1 μL of a test compound stock is serially diluted in 100% DMSO using an Echo Acoustic Liquid Handler (LabCyte Sunnydale, Calif.) in 384 well proxiplates (Perkin Elmer). A 5 μL addition of IL-17RA-FLAG is added to the plate, followed by the addition of 5 μL Avi-tagged IL-17A-His to provide a final concentration of 2 nM of IL-17RA and IL-17A, respectively. The assay is carried out in 20 mM HEPES, 150 mM NaCl, 0.05% Tween-20, 0.1% Human Serum Albumin, pH 7 and 1% DMSO. The assay mixture is allowed to incubate at room temperature for 2 hours. After the 2 hour incubation, 10 μL of streptavidin donor beads (20 μg/ml final) and anti-FLAG acceptor beads (20 μg/ml final) are added to the plate. The plate is allowed to incubate for one hour at room temp, then is read on the Envision (Perkin Elmer). The relative IC50 values are determined using a four parameter fit as shown in equation 1. In this equation, bottom and top are defined as the plateaus of the curve, and H is the Hill Slope.

[2] = Mouse oral bioavailability; format: in vivo; details: whole blood (dried blood spot), male mice, IV bolus 1 mg/kg vs oral 3 mg/kg, 8-hour AUC, read-out: % F (mouse)
Procedure: Oral bioavailability (% F) for compounds of the invention may be determined in mice by determination of an 8-hour blood plasma AUC (nM*hr) following intravenous and oral administration performed essentially as follows. Male mice (n=3) are administered compound via intravenous (IV) bolus (1 mg/kg) or orally (3 mg/kg). For intravenous administration, a vehicle of 20% w/v capsitol in NaPO4 buffer (25 mM) adjusted to pH 2 in a volume of 5 mL/kg is used. For oral administration, a vehicle of HEC/P80/AF/PW (probe sonicated to afford a homogeneous suspension) in a volume of 10 mL/kg is used. Blood is sampled by saphenous bleeding using K2 EDTA as anticoagulant. Approximately 20 μL of blood (or enough for 1 spot) is collected via a capillary tube and transferred to a card as a dry blood spot. Cards are allowed to dry for at least 2 hours before shipping for analysis. Blood concentration of compounds for each mouse is measured by liquid chromatography/tandem mass spectrometry at time points of 0.08 (IV only), 0.25, 0.5, 0.75, 2, 4, and 8 hours. Oral bioavailability (% F) is determined via the following equation: [% F=(AUC/Dose)PO/(AUC/Dose)IV].

Chain of human IL-17A (Q16552 20-155): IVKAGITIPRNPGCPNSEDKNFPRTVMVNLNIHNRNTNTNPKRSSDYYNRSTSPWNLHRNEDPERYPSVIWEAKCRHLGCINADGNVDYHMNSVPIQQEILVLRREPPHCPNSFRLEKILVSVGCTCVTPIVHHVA
Chain of binding of IL-17A to IL-17RA (Q16552 other isoform, or with tags, fused parts or gaps): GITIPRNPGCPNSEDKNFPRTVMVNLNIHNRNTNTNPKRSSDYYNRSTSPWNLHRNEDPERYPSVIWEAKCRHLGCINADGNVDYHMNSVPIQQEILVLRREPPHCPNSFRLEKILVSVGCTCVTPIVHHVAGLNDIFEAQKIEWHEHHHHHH

IC50 (human IL-17A) | IC50 [1] | bioavailability [2] | SMILES
0.0465 µM | 0.0106 µM | 12% | O=C(N[C@H](c1cn2ncc(CN3C[C@@H](C(F)(F)F)NC3=O)cc2n1)C1CCC(F)(F)CC1)c1conc1CCF [Example 9, N—[(S)-(4,4-Difluorocyclohexyl)-[7-[[(4S)-2-oxo-4-(trifluoromethyl)imidazolidin-1-yl]methyl]imidazo[1,2-b]pyridazin-2-yl]methyl]-3-(2-fluoroethyl)isoxazole-4-carboxamide]
0.0022 ± 0.0016 µM | < 0.00945 µM | 37% | COC[C@H](c1cnn2cc([C@@H](NC(=O)c3nonc3C3CC3)C3CCC(F)(F)CC3)nc2c1)N1C[C@@H](C(F)(F)F)NC1=O [Example 25, 4-Cyclopropyl-N—[(S)-(4,4-difluorocyclohexyl)-[7-[(1S)-2-methoxy-1-[(4S)-2-oxo-4-(trifluoromethyl)imidazolidin-1-yl]ethyl]imidazo[1,2-b]pyridazin-2-yl]methyl]-1,2,5-oxadiazole-3-carboxamide]
0.127 µM | 0.0277 ± 0.0024 µM | 35% | Cc1nocc1C(=O)N[C@H](c1cn2ncc(CN3C[C@@H](C(F)(F)F)NC3=O)cc2n1)C1CCC(F)(F)CC1 [Example 3, N—[(S)-(4,4-Difluorocyclohexyl)-[7-[[(4S)-2-oxo-4-(trifluoromethyl)imidazolidin-1-yl]methyl]imidazo[1,2-b]pyridazin-2-yl]methyl]-3-methyl-isoxazole-4-carboxamide]
0.0093 ± 0.006 µM | < 0.00945 µM | 107% | COC[C@H](c1cnn2cc([C@@H](NC(=O)c3nonc3C)C3CCC(F)(F)CC3)nc2c1)N1C[C@@H](C(F)(F)F)NC1=O [Example 24, N—[(S)-(4,4-Difluorocyclohexyl)-[7-[(1S)-2-methoxy-1-[(4S)-2-oxo-4-(trifluoromethyl)imidazolidin-1-yl]ethyl]imidazo[1,2-b]pyridazin-2-yl]methyl]-4-methyl-1,2,5-oxadiazole-3-carboxamide]
